Source: US20070179154A1, “Coumarin derivatives, process for their production and use thereof” (Takeda Pharmaceutical Company Limited, priority 2002, published 2007)

`Cc1cc2c(-c3cccc(CCC(=O)O)c3)c(CC(=O)Nc3ccc(F)cc3C(F)(F)F)c(=O)oc2cc1Cl` [Example 14, 3-[5-[7-chloro-3-[2-[[4-fluoro-2-(trifluoromethyl)phenyl]amino]-2-oxoethyl]-6-methyl-2-oxo-2H-chromen-4-yl]phenyl]propionic acid] gave a melting point of 212 to 214 °C. `Cc1cc2c(-c3cccc(CCc4nnn[nH]4)c3)c(CC(=O)Nc3ccc(F)cc3C(F)(F)F)c(=O)oc2cc1Cl` [Example 98] showed a melting point of 244 to 246 °C. Compound `Cc1cc2c(-c3cccc(C(=O)O)c3)c(CC(=O)Nc3ccc(Cl)cc3C(F)(F)F)c(=O)oc2cc1Cl` [Example 1, 3-[7-chloro-3-[2-[[4-chloro-2-(trifluoromethyl)phenyl]amino]-2-oxoethyl]-6-methyl-2-oxo-2H-chromen-4-yl]benzoic acid] has a melting point of 270 to 272 °C. Compound `O=C(O)CCc1cccc(-c2c(CC(=O)Nc3ccc(F)cc3C(F)(F)F)c(=O)oc3cc(Cl)ccc23)c1` [Example 23, 3-[3-[7-chloro-3-[2-[[4-fluoro-2-(trifluoromethyl)phenyl]amino]-2-oxoethyl]-2-oxo-2H-chromen-4-yl]phenyl]propionic acid] has a melting point of 211 to 212 °C. Work on `Cc1cc2c(-c3ccc(F)c(/C=C/C(=O)O)c3)c(CC(=O)Nc3ccc(Cl)cc3C(F)(F)F)c(=O)oc2cc1Cl` [Example 19, (2E)-3-[5-[7-chloro-3-[2-[[4-chloro-2-(trifluoromethyl)phenyl]amino]-2-oxoethyl]-6-methyl-2-oxo-2H-chromen-4-yl]-2-fluorophenyl]-2-propenoic acid] yielded a melting point of 277 to 279 °C. With `Cc1cc2c(-c3cccc(Cc4noc(=O)[nH]4)c3)c(CC(=O)Nc3ccc(F)cc3C(F)(F)F)c(=O)oc2cc1Cl` [Example 100] the melting point was 161 to 164 °C. With `Cc1cc2c(-c3cccc(C(=O)O)c3)c(CC(=O)Nc3ccc(F)cc3C(F)(F)F)c(=O)oc2cc1Cl` [Example 2] the melting point was 278 to 280 °C. `Cc1cc2c(-c3cccc(C(=O)NC(C)C)c3)c(CC(=O)Nc3ccc(Cl)cc3C(F)(F)F)c(=O)oc2cc1Cl` [Example 121] gave a melting point of 215 to 217 °C. For `Cc1cc2c(-c3cccc(Cc4noc(=O)[nH]4)c3)c(CC(=O)Nc3ccccc3C(F)(F)F)c(=O)oc2cc1Cl` [Example 101], the melting point was 295 °C (dec.). `CCOC(=O)/C=C/c1cccc(-c2c(CC(=O)Nc3ccc(F)cc3C(F)(F)F)c(=O)oc3cc(Cl)c(F)cc23)c1` [Example 6, ethyl (2E)-3-[3-[7-chloro-6-fluoro-3-[2-[[4-fluoro-2-(trifluoromethyl)phenyl]amino]-2-oxoethyl]-2-oxo-2H-chromen-4-yl]phenyl}-2-propenoate] showed a melting point of 151 to 153 °C. With `COC(=O)c1cccc(-c2c(CC(=O)Nc3ccc(Cl)cc3C(F)(F)F)c(=O)oc3cc(Cl)c(CN4CCN(c5ccccc5)CC4)cc23)c1` [Example 109] the melting point was 130 to 132 °C. Compound `CCOC(=O)CCc1cccc(-c2c(CC(=O)Nc3ccc(F)cc3C(F)(F)F)c(=O)oc3ccccc23)c1` [Example 13, ethyl 3-[3-[3-[2-[[4-fluoro-2-(trifluoromethyl)phenyl]amino]-2-oxoethyl]-2-oxo-2H-chromen-4-yl]phenyl]propionate] has a melting point of 163 to 164 °C. With `COC(=O)c1ccc(-c2c(CC(=O)Nc3ccc(F)cc3C(F)(F)F)c(=O)oc3cc(Cl)c(C)cc23)cc1` [Example 45, Methyl 4-(7-chloro-3-{2-[4-fluoro-2-(trifluoromethyl)anilino]-2-oxoethyl}-6-methyl-2-oxo-2H-chromen-4-yl)benzoate] the melting point was 202 to 204 °C. In the case of `CCOC(=O)CS(=O)(=O)Cc1cccc(-c2c(CC(=O)Nc3ccc(F)cc3C(F)(F)F)c(=O)oc3cc(Cl)c(C)cc23)c1` [Example 64, Ethyl ({3-[7-chloro-3-(2-{[4-fluoro-2-(trifluoromethyl)phenyl]amino}-2-oxoethyl)-6-methyl-2-oxo-2H-chromen-4-yl]benzyl}sulfonyl)acetate], the melting point is reported as 230 to 231 °C. Work on `CCOC(=O)CNCc1cccc(-c2c(CC(=O)Nc3ccc(F)cc3C(F)(F)F)c(=O)oc3cc(Cl)c(C)cc23)c1` [Example 62, Ethyl ({3-[7-chloro-3-(2-{[4-fluoro-2-(trifluoromethyl)phenyl]amino}-2-oxoethyl)-6-methyl-2-oxo-2H-chromen-4-yl]benzyl}amino)acetate] yielded a melting point of 153 to 155 °C. With `Cc1cc2c(-c3cccc(CCC(=O)O)c3)c(CC(=O)Nc3ccccc3C(F)(F)F)c(=O)oc2cc1Cl` [Example 20, 3-[3-[7-chloro-6-methyl-2-oxo-3-(2-oxo-2-[[2-(trifluoromethyl)phenyl]amino]ethyl)-2H-chromen-4-yl]phenyl]propionic acid] the melting point was 150 °C (dec.). For `CCOC(=O)CCc1cccc(-c2c(CC(=O)Nc3ccc(F)cc3C(F)(F)F)c(=O)oc3cc(Cl)c(C)cc23)c1` [Example 8, ethyl 3-[5-[7-chloro-3-[2-[[4-fluoro-2-(trifluoromethyl)phenyl]amino]-2-oxoethyl]-6-methyl-2-oxo-2H-chromen-4-yl]phenyl]propionate], the melting point was 121 to 123 °C. Work on `CCOC(=O)CCc1cccc(-c2c(CC(=O)Nc3ccc(F)cc3C(F)(F)F)c(=O)oc3cc(Cl)ccc23)c1` [Example 12, ethyl 3-[3-[7-chloro-3-[2-[[4-fluoro-2-(trifluoromethyl)phenyl]amino]-2-oxoethyl]-2-oxo-2H-chromen-4-yl]phenyl]propionate] yielded a melting point of 164 to 165 °C. With `O=C(O)/C=C/c1cccc(-c2c(CC(=O)Nc3ccc(F)cc3C(F)(F)F)c(=O)oc3cc(Cl)ccc23)c1` [Example 18, (2E)-3-[3-[7-chloro-3-[2-[[4-fluoro-2-(trifluoromethyl)phenyl]amino]-2-oxoethyl]-2-oxo-2H-chromen-4-yl]phenyl]-2-propenoic acid] the melting point was 254 to 257 °C. Compound `CCOC(=O)CCc1cccc(-c2c(CC(=O)Nc3ccc(F)cc3C(F)(F)F)c(=O)oc3cc(Cl)c(F)cc23)c1` [Example 11, ethyl 3-[3-[7-chloro-6-fluoro-3-[2-[[4-fluoro-2-(trifluoromethyl)phenyl]amino]-2-oxoethyl]-2-oxo-2H-chromen-4-yl]phenyl]propionate] has a melting point of 142 to 144 °C. Work on `COC(=O)c1cccc(-c2c(CC(=O)Nc3ccc(F)cc3C(F)(F)F)c(=O)oc3cc(Cl)c(CN4CCN(c5ccccc5)CC4)cc23)c1` [Example 108] yielded a melting point of 135 to 137 °C. `CCOC(=O)CCc1cccc(-c2c(CC(=O)Nc3ccc(F)cc3C(F)(F)F)c(=O)oc3cc(C)c(Cl)cc23)c1` [Example 10, ethyl 3-[3-[6-chloro-3-[2-[[4-fluoro-2-(trifluoromethyl)phenyl]amino]-2-oxoethyl]-7-methyl-2-oxo-2H-chromen-4-yl]phenyl]propionate] showed a melting point of 158 to 160 °C. For `Cc1cc2oc(=O)c(CC(=O)Nc3ccc(F)cc3C(F)(F)F)c(-c3cccc(/C=C/C(=O)O)c3)c2cc1Cl` [Example 16, (2E)-3-[3-[6-chloro-3-(2-[[4-fluoro-2-(trifluoromethyl)phenyl]amino]-2-oxoethyl)-7-methyl-2-oxo-2H-chromen-4-yl]phenyl]-2-propenoic acid], the melting point was 272 to 274 °C. `O=C(O)CCc1cccc(-c2c(CC(=O)Nc3ccc(F)cc3C(F)(F)F)c(=O)oc3ccccc23)c1` [Example 24, 3-[3-[3-[2-[[4-fluoro-2-(trifluoromethyl)phenyl]amino]-2-oxoethyl]-2-oxo-2H-chromen-4-yl]phenyl]propionic acid] gave a melting point of 230 to 232 °C.
